Assay results published in patent publication US5576296A, “Galanin antagonist” (priority 1991, dated 1996).

System: scopolamine-induced release of ACh
Assay: Microdialysis: scopolamine-induced release of ACh in vivo from rat ventral hippocampus
Conditions: scopolamine 0.3 mg/kg s.c. alone; peak (second) 20 min fraction; n=2
Procedure: 2) Galanin inhibits acetylcholine release, measured according to Fisone G., et al (Proc. Natl. Acad. Sci. vol 84, 1987, 7339-7343). By using substantially the same procedure as the cited Fisone G., et al, a peptide according to the invention, M15, is now shown to counteract the inhibitory effects of galanin on the scopolamine-induced release of acetylcholine in vivo.
Surgery and basic methodology. Experiments were carried out with female CD-COBS (Charles River, Como, Italy) rats, weighing 200-260 g. Animals were anesthetized with equitensin (1% pentobarbital, 4% chloral hydrate). […] The microdialysis probe extended 3 mm beyond the end of the guide cannula; it was perfused at a constant rate of 2 μl (min with Ringer's solution (NaCl, 147 mM; CaCl2, 2.2 mM and KCl, 4.0 mM), containing 10 μM physostigmine sulfate and adjusted to pH 7.0 with NaOH. The initial 40 min perfusate was discarded. Thereafter, perfusates were collected every 20 min during a total perfusion period of 260 min. At the end of the collection period, the samples were immediately frozen on solid CO2 and lyophilized. Acetylcholine (Ach) content was quantified by a specific radioenzymatic method described in detail by Consolo S., et al. (J. Neurochem. […]

CN1[C@@H]2C[C@@H](OC(=O)[C@H](CO)c3ccccc3)C[C@H]1[C@@H]1O[C@@H]12 [Scopolamine]
ACh release: 13.1 pmol
